Assay results: PMC9508125, “The evolutionary advantage of an aromatic clamp in plant family 3 glycoside exo-hydrolases” (Nature Communications, 2022)

Key:
HvExoI = target: HvExoI; design: method as in PMID 8617814; settings: transition state analogue; previous observations; cited from earlier work
Recombinant HvExoI W286Y = format: biochemical, Hordeum vulgare; settings: calculated according to ∆G = -RT ln [1/Ki]
Method: (§1) Dependency of activities of WT and mutant HvExoI on pH (McIlvaine buffers in the pH range of 3.5–8.5 at 30 °C) and temperature (100 mM sodium acetate buffer, pH 5.25, temperature range 0–80 °C, 15 min incubations) were determined using 0.2% (w/v) 4NP-Glc[21],[59]. Relative rates of hydrolysis of β-linked poly-, oligosaccharides, and aryl-glucosides were determined using near-homogenous HvExoI at 50 pmoles. […] Kinetic parameters were calculated from the analyses of Michaelis-Menten plots with Grafit 7.0.3[62] and processed by a proportional weighted fit, using nonlinear regression. The relative rates of hydrolysis, kinetic, and inhibition data were rounded to one or two decimal points (Supplementary Tables 2–4).

Recombinant HvExoI W434Y = experiment: Inhibition by thio-analogues using the 4NP-Glc substrate; format: biochemical, Hordeum vulgare; settings: calculated according to ∆G = -RT ln [1/Ki]
Method: as §1

Recombinant HvExoI W434A = experiment: as above; format: biochemical, Hordeum vulgare; settings: calculated according to ∆G = -RT ln [1/Ki]
Method: as §1

Recombinant HvExoI W286F = experiment: as above; format: biochemical, Hordeum vulgare; settings: calculated according to ∆G = -RT ln [1/Ki]
Method: as §1

Recombinant HvExoI W434F = experiment: as above; format: biochemical, Hordeum vulgare; settings: calculated according to ∆G = -RT ln [1/Ki]
Method: as §1

Recombinant HvExoI W434H = experiment: as above; format: biochemical, Hordeum vulgare; settings: calculated according to ∆G = -RT ln [1/Ki]
Method: as §1

Native HvExoI = Native HvExoI (Hordeum vulgare, UniProt Q9XEI3); experiment: as above; format: biochemical; settings: calculated according to ∆G = -RT ln [1/Ki]
Chain of Native HvExoI (Q9XEI3 entry or part of it): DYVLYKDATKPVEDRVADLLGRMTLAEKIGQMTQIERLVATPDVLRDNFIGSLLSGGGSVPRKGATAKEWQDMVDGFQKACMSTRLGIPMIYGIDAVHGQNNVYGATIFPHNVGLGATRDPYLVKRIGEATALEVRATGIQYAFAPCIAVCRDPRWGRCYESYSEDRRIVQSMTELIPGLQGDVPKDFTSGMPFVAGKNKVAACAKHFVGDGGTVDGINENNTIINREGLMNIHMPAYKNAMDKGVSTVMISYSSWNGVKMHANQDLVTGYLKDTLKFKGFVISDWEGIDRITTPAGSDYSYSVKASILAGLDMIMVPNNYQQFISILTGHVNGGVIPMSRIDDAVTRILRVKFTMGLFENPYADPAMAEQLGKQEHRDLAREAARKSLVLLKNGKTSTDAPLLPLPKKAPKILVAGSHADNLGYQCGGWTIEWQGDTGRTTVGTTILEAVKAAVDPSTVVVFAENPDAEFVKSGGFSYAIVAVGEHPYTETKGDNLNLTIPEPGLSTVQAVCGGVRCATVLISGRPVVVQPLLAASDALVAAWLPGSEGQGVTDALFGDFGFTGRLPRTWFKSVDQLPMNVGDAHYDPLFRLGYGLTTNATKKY
Method: as §1

WT HvExoI = WT HvExoI (Hordeum vulgare, UniProt Q9XEI3); experiment: as above; format: biochemical
Chain of WT HvExoI (Q9XEI3 entry or part of it): as above
Method: as §1

Molecule	Ki (HvExoI) [nM]	ΔG (Recombinant HvExoI W286Y) [kcal/mol]	ΔG (Recombinant HvExoI W434Y) [kcal/mol]	ΔG (Recombinant HvExoI W434A) [kcal/mol]	ΔG (Recombinant HvExoI W286F) [kcal/mol]	ΔG (Recombinant HvExoI W434F) [kcal/mol]	ΔG (Recombinant HvExoI W434H) [kcal/mol]	ΔG (Native HvExoI) [kcal/mol]	ΔG (WT HvExoI; Recombinant WT, calculated according to ∆G = -RT ln [1/Ki]) [kcal/mol]	type of inhibition (WT HvExoI; WT HvExoI)
O=C1O[C@H](CO)[C@@H](O)[C@H](O)[C@H]1O [D-glucono−1,5-lactone]	2100									
4-nitrophenyl 3-thio-laminaribioside [4NP-G3SG]		-3.75	-3.75	-3.92	-4.37	-4.11	-3.61	-4.37	-4.37	competitive inhibition
